Legend:
[1] = tested on: Aspergillus fumigatus clinical isolate 117; assay: Antifungal susceptibility testing (MEC, CLSI M38-A2); assay type: cell-based; details: clinical isolate 117, fks1 WT
Description: (§1) Minimum effective concentrations (MECs) for A. fumigatus strains were determined according to CLSI document M38-A2 ([48]) and defined as the lowest drug concentration that led to the growth of small, rounded, compact hyphal forms compared to the hyphal growth seen in the drug-free growth control wells. The following drugs (supplier) were tested: caspofungin (Merck & Co., Inc.), micafungin (Astellas Pharma US, Inc.), anidulafungin (Pfizer Inc.), itraconazole (Sigma-Aldrich), voriconazole (Pfizer Inc.), and amphotericin B (Sigma-Aldrich). In addition, rezafungin and ibrexafungerp were obtained from Cidara Therapeutics and Scynexis Inc., respectively.

[2] = tested on: Aspergillus fumigatus clinical isolate 2770; assay: as above; assay type: cell-based; details: clinical isolate 2770, fks1 WT
Description: as §1

[3] = tested on: Aspergillus fumigatus clinical isolate 32315; assay: as above; assay type: cell-based; details: clinical isolate 32315, fks1 WT
Description: as §1

[4] = tested on: Aspergillus fumigatus clinical isolate 32458; assay: as above; assay type: cell-based; details: clinical isolate 32458, fks1 WT
Description: as §1

[5] = tested on: Aspergillus fumigatus clinical isolate 68284B; assay: as above; assay type: cell-based; details: fks1 WT
Description: as §1

A. fumigatus RG101 [6] = assay type: cell-based, Aspergillus fumigatus
Description: The following drugs (supplier) were tested: caspofungin (Merck & Co., Inc.), micafungin (Astellas Pharma US, Inc.), anidulafungin (Pfizer Inc.), itraconazole (Sigma-Aldrich), voriconazole (Pfizer Inc.), and amphotericin B (Sigma-Aldrich). In addition, rezafungin and ibrexafungerp were obtained from Cidara Therapeutics and Scynexis Inc., respectively.

[7] = target: β-(1,3)-D-glucan synthase of RG101 (Aspergillus fumigatus, UniProt Q4WLT4); assay: Glucan synthase kinetic inhibition assay, enzyme from RG101; assay type: biochemical
Description: ATCC 13073 or RG101 was grown in liquid YPD medium at 37°C for 16 h. Partially purified glucan synthase was isolated by the product entrapment method, as previously described ([21]). Sensitivity to echinocandin drugs was measured by glucan synthase assay, using a 96-well multiscreen high-throughput screen filtration system (Millipore Corporation, Bedford, MA) in a final volume of 100 μl. Inhibition of the enzyme by the drug was analyzed after incubation of the enzyme with a radioactive substrate over a broad range of concentrations (0 to 10,000 ng/ml) of echinocandins for 1 h at room temperature. Radioactivity from the enzyme product, β-(1,3)-D-glucan, was measured. Inhibition profiles were determined using a sigmoidal response curve fitting algorithm with GraphPad Prism software (v 7.04).
To study the effect of lipids on the enzyme, dihydrosphingosine, phytosphingosine, or phytoceramide C2 (Sigma-Aldrich D6783, P2795, and C8105, respectively) was added directly to the assay mixture and coincubated with an echinocandin for 1 h at room temperature.

[8] = target: β-(1,3)-D-glucan synthase of clinical isolate 2770 (Aspergillus fumigatus, UniProt Q4WLT4); assay: Glucan synthase kinetic inhibition assay, enzyme from clinical isolate 2770; assay type: biochemical; details: enzyme from isolate 2770 grown at 4 μg/ml CAS
[9] = target: β-(1,3)-D-glucan synthase of clinical isolate 32458 (Aspergillus fumigatus, UniProt Q4WLT4); assay: Glucan synthase kinetic inhibition assay, enzyme from clinical isolate 32458; assay type: biochemical; details: enzyme from isolate 32458 grown at 4 μg/ml CAS
[10] = tested on: reactive oxygen species (ROS) in A. fumigatus ATCC 13073; assay: ROS production, DCFDA fluorescence assay; assay type: cell-based, Aspergillus fumigatus; details: 1 μg/ml, 1 h exposure, compared with other echinocandins
Description: (§2) ROS production in mycelia was measured using a protocol previously described by Blatzer et al. ([51]) with a few changes. Suspensions of 10^4 spores/ml of ATCC 13073 and RG101 were grown in static culture in complete supplement mixture (CSM) medium for 16 h in a 96-well microplate at 37°C. After incubation, the mycelia were washed once with CSM, 10 μM 2′,7′–dichlorofluorescin diacetate (DCFDA) dye was added, and cells were incubated in the dark at 37°C for 30 min. Cells were then washed three times with phosphate-buffered saline (PBS), and a final concentration of 1 μg/ml of each echinocandin in CSM medium was added to different wells. Fluorescence intensity (excitation at 485 nm and emission at 530 nm) was measured for 1 h in a microplate reader (Tecan Infinite M200 Pro). Mycelia stained with DCFDA without any drug were used as a control.

[11] = tested on: reactive oxygen species (ROS) in A. fumigatus RG101; assay: ROS production, DCFDA fluorescence assay; assay type: cell-based, Aspergillus fumigatus; details: 1 μg/ml, 1 h exposure, DCFDA, compared with other echinocandins
Description: as §2

fks1 expression in RG101 = assay: fks1 expression by RT-PCR; assay type: cell-based, Aspergillus fumigatus; details: RG101, 16 h in YPD, CAS 1 and 4 μg/ml
Description: Supplementary file : FIG S1 fks1 expression levels in RG101 under uninduced and CAS-induced conditions. RG101 conidia were grown for 16 h in YPD in the absence and presence of CAS (1 and 4 μg/ml), and expression levels of fks1 were compared using reverse transcription-PCR (RT-PCR). […] Download FIG S1, DOCX file, 0.02 MB.

A. fumigatus ATCC 13073 = assay: Electron microscopy (SEM, TEM) of cell wall ultrastructure; assay type: cell-based, Aspergillus fumigatus; details: CAS 4 μg/ml, 16 h, SEM and TEM
Description: (§3) Scanning electron microscopy (SEM) and transmission electron microscopy (TEM) methods were followed as described previously ([49]) and in Text S1.
(§4) For SEM, mycelia of ATCC 13073 and RG101 were grown in the absence and presence of CAS (4 µg/mL) and were fixed with 2.5% (v/v) glutaraldehyde in 0.1 M cacodylate buffer (pH 7.4) at room temperature for 3 h. After being washed with 0.1 M cacodylate buffer, specimens were post-fixed for 1 h with 1% osmium tetroxide in 0.1 M cacodylate buffer (pH 7.4) at 4 °C. Samples were dehydrated in graded ethanol, and then critical point dried in liquid carbon dioxide and sputter-coated with a thin layer of palladium–gold. Observations were carried out using Hitachi S-3400 N scanning electron microscope.
(§5) For TEM, cultures were fixed with 2.5% (v/v) glutaraldehyde solution as described above. They were then post-fixed for 1 h with 1% (w/v) osmium tetroxide in 0.1 M cacodylate buffer (pH 7.4) at 4 °C. After three wash steps in buffer, specimens were dehydrated in a series of graded ethanol and embedded in Embed 812. Thin sections were stained with uranyl acetate followed by lead nitrate and examined in a Hitachi H-7500 electron microscope operated at 100 KV.

A. fumigatus RG101 [12] = assay: as above; assay type: cell-based, Aspergillus fumigatus; details: CAS 4 μg/ml, 16 h, SEM and TEM
Description: as §3, §4, §5

β-(1,3)-D-glucan synthase of RG101, sequence (Q4WLT4 1-1904): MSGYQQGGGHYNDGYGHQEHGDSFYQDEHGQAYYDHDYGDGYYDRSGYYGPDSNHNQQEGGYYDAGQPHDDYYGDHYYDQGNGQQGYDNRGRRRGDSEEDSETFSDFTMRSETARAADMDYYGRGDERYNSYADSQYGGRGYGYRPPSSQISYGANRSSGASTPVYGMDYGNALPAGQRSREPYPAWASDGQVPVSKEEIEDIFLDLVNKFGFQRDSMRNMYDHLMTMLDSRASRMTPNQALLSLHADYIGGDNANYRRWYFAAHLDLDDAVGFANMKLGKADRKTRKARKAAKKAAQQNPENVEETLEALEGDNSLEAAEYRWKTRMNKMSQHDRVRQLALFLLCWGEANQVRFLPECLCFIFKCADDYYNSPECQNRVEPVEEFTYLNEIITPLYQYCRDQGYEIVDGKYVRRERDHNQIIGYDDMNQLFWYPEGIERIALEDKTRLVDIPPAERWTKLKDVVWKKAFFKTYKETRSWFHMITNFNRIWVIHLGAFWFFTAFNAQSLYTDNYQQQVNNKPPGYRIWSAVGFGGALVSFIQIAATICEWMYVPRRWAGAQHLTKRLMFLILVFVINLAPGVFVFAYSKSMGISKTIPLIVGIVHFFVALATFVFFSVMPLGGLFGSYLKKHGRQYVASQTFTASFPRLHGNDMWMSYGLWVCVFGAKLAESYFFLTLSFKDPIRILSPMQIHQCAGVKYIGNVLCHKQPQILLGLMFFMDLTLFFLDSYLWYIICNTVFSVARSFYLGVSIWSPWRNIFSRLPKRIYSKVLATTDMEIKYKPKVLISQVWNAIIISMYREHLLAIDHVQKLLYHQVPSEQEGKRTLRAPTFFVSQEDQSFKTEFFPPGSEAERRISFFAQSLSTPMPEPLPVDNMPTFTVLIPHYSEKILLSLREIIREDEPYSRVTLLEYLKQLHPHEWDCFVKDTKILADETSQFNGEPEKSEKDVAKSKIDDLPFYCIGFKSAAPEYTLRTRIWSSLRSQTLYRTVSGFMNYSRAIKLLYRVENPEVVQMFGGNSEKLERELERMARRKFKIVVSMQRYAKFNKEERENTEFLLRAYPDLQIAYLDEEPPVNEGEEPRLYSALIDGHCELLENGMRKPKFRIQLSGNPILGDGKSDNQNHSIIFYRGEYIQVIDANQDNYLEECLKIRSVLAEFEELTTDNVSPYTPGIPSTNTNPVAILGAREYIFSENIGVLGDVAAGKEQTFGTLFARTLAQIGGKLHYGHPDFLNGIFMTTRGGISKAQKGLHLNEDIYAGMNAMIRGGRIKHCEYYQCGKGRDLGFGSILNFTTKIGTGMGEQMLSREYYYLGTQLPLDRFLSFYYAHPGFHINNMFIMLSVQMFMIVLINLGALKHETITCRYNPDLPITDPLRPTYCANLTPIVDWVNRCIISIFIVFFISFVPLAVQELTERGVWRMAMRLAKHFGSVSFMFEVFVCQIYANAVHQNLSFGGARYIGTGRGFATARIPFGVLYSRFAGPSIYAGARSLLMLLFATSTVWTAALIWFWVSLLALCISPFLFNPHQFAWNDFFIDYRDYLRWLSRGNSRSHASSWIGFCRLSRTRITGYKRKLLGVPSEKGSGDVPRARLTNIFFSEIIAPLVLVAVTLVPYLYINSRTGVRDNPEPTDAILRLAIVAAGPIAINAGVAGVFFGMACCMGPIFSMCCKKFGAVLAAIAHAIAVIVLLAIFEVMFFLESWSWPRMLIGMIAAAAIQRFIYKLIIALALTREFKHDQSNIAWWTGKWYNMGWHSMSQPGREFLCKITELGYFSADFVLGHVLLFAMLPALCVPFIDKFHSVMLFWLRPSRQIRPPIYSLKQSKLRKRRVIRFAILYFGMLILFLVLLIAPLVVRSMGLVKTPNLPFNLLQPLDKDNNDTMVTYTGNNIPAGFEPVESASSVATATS
β-(1,3)-D-glucan synthase of clinical isolate 32458, sequence (Q4WLT4 1-1904): as above

With CC[C@H](C)C[C@H](C)CCCCCCCCC(=O)N[C@H]1C[C@@H](O)[C@@H](NCCN)NC(=O)[C@@H]2[C@@H](O)CCN2C(=O)[C@H]([C@H](O)CCN)NC(=O)[C@H]([C@H](O)[C@@H](O)c2ccc(O)cc2)NC(=O)[C@@H]2C[C@@H](O)CN2C(=O)[C@H]([C@@H](C)O)NC1=O [CAS, caspofungin] as the molecule, how does the “MEC (minimum effective concentration)” value [1] read?
The value was 16 µg/mL.

And the “MEC (minimum effective concentration)” value [2]?
The value was 16 µg/mL.

What about the “MEC (minimum effective concentration)” value [3] of the same molecule?
Its value is 16 µg/mL.

And the “MEC (minimum effective concentration)” value [4]?
The value was 16 µg/mL.

What about the “MEC (minimum effective concentration)” value [5] of the same molecule?
Its value is 4 µg/mL.

And the “Breakthrough growth concentrations, RG101” value (A. fumigatus RG101 [6]; 24 h)?
Its value is 0.5 to 8 µg/mL.

What about the “MEC 2 (rosettes form again), RG101” value (A. fumigatus RG101 [6]; 24 h) of the same molecule?
Its value is 16 µg/mL.

And the “Susceptibility phenotype of RG101” value (A. fumigatus RG101 [6]; 24 h)?
Its value is “resistant”.

What about the “Growth phenotype of RG101 at 30 h” value (A. fumigatus RG101 [6]; 30 h, all concentrations tested (0.25 to 8 μg/ml)) of the same molecule?
The value was “full breakthrough”.

And the “Loss of sensitivity (IC50 shift) of glucan synthase from RG101 grown with CAS versus without” value ([7]; RG101 grown in presence vs absence of CAS)?
The value was 4 log orders.

And the IC50 ([7]; enzyme from RG101 grown at 4 μg/ml CAS)?
Its IC50 is > 9.15 µM.

What about the IC50 [8] of the same molecule?
Its IC50 is > 9.15 µM.

And the IC50 [9]?
Its IC50 is ~4.57 µM.

And the “ROS levels induced in ATCC 13073” value [10]?
Its value is “highest levels”.

And the “ROS levels induced in RG101” value [11]?
Its value is “highest levels”.

And the “fks1 expression levels, CAS-induced vs uninduced” value (fks1 expression in RG101)?
The value was “No significant differences”.

What about the “Cell wall ultrastructure of ATCC 13073 grown in the presence of CAS” value (A. fumigatus ATCC 13073) of the same molecule?
The value was “extensive damage”.

What about the “Cell wall ultrastructure of RG101 grown in the presence of CAS” value (A. fumigatus RG101 [12]) of the same molecule?
Its value is “did not show any ultrastructural cell wall damage”.

From publication PMC6550521, “Stress-Induced Changes in the Lipid Microenvironment of β-(1,3)-D-Glucan Synthase Cause Clinically Important Echinocandin Resistance in Aspergillus fumigatus” (mBio, 2019)
